These results are taken from PMC3056768, “Conjugation to the Cell-Penetrating Peptide TAT Potentiates the Photodynamic Effect of Carboxytetramethylrhodamine” (PLoS ONE, 2011).

“Also recorded” adds a separate entry of the source.

Data set [1] concerns HeLa cells. Put plainly: Toxicity in the absence of light (SYTOX green / DAPI). Type of data set: cell-based, human. Particulars: concentrations up to 25 µM, 1 h in L-15 at 37°C, washed, additional 4 h, average of 3 experiments. The protocol:
Supplementary file pone.0017732.s001.tif: Figure S1 Toxicity of TMR-TAT toward HeLa cells in the absence of light. TMR-TAT was incubated at the concentration indicated with cells for 1 hour in L-15 at 37°C. Cells were washed with fresh L-15 and incubated for an additional 4 h. Cells were then treated with L-15 containing DAPI and SYTOX® green. DAPI stains the nucleus of all cells while SYTOX® green only stains the nucleus of dead cells. Cells were imaged by fluorescence microscopy using the DAPI and FITC filters to detect DAPI and SYTOX® green, respectively. For each experiments, five representative images were acquired using the 20× objective and the percentage of dead cells were calculated from the ratio of cells stained by SYTOX® green divided by the number of cells stained by DAPI. The reported data is the average of 3 experiments (3×5 images, ≥1000 cells/experiments) and the error bar represents the standard deviation. (TIF) Click here for additional data file.

The next data set deals with red blood cells (RBCs). The protocol: Whole blood was purchased from Gulf Coast Regional Blood Center (Houston, TX). Erythrocytes were centrifuged for 5 min at 1500 g and the erythrocyte pellet was resuspended with PBS. This was repeated three times to remove plasma and buffy coat. The erythrocytes (50% volume in PBS) were diluted in PBS to a final concentration of 0.25%. Indicated concentration of peptide was added to the medium and the samples were added to the wells of an 8-well chamber glass slide (Nunc). Cells were typically allowed to settle to the bottom of the dish for 5 minutes prior to imaging so as to obtain a layer of cells in the focal plane.
Cells were placed on an inverted epifluorescence microscope (Model IX81, Olympus, Center Valley, PA) equipped with a heating stage maintained at 37°C. The microscope is configured with a spinning disk unit to perform both confocal and wide-field fluorescence microscopy. Images were collected using a Rolera-MGI Plus back-illuminated EMCCD camera (Qimaging, Surrey, BC, Canada). Images were acquired using bright field imaging and two standard fluorescence filter sets: Texas Red (Ex = 560±20 nm/Em = 630±35 nm), and CFP (Ex = 436±10 nm/Em = 480±20 nm). The excitation light was from a 100 W halogen lamp (Olympus USH 1030C) passed through the filter cubes and 40 or 100× objective lenses. Neutral density filters (ND 1, 2, 3, or 4 on the instrument, corresponding to 100, 25, 12.5, or 5% transmittance) and different exposure times were used to modulate the amount of light samples were exposed to. The bright field and fluorescence intensities of cells and ghosts were measured using the SlideBook 4.2 software (Olympus, Center Valley, PA). To determine the percentage of cells stained by SYTOX® Blue, cells were imaged with a 20× objective by phase contrast. Ten to twenty images were acquired for each experiment. The total number of cells in a given image was determined from the phase contrast image while the number of dead cells was determined by identifying cells containing a blue fluorescent nucleus stained by SYTOX® Blue. Cell viability was determined by establishing a ratio of dead cells/total number of cells for each sample (at least 1000 cells were counted in each experiments and each experiments were repeated 3 times).
TMR and TMR containing peptides were used at 2 µM. All experiments were performed by irradiating the samples at 560 nm for 400 msec (∼8 J/cm^2). The data in the histogram represents the average of 4 experiments and the error bars correspond to the standard deviation.

In data set [2] the test system is HeLa cells. The experiment in a line: Photocytotoxicity of endocytosed peptide after light irradiation (SYTOX Blue staining, membrane blebbing). It counts as cell-based. The protocol: HeLa (human cervical adenocarcinoma), COS-7 (SV40 transformed African green monkey kidney fibroblast-like cell line) were obtained from ATCC. COLO 316 (human ovarian carcinoma) were obtained from Robert Burghardt (Department of Veterinary Integrative Biosciences, Texas A&M University). Cells were cultured in DMEM supplemented with 10% fetal bovine serum (FBS) and maintained at 37°C in a humidified environment with 5% CO2. Cells were plated in 8-well dishes so that the cells were 70% confluent after 24 h, washed 3 times with L-15 media, incubated with 3 to 10 µM peptides at 37°C for 1 h, washed 3 times with L-15, and imaged. Alternatively, cells were incubated in L-15 at 4°C to inhibit the endocytic uptake of peptides. In this case, cells were imaged with the peptide still present in solution and the low temperature was maintained for the entire duration of imaging. For photosensitization, cells were exposed to light (λex = 560±20 nm) for the indicated time points. Plasma membrane disruption was detected by addition of the cell-impermeable DNA stain SYTOX Blue (5 µM) during or after photosensitization.
Ten to twenty images were acquired for each experiment.
Irradiances at the specimen were 100 mW/cm^2 when no neutral density filter and no objective were present in the light path (and, for instance 5 mW/cm^2 when ND4 was inserted). Irradiances were measured using a monochromic photometer (model 840-c, Newport, Irvine, CA). Irradiation area has a diameter of 1.3 cm without objective but the light beam is focused into an area of 3×10^−3 cm^2 by the 100× objective. Irradiances can therefore be approximated to be at […] with ND4 or ND1, respectively. Irradiances provided in the figure legends are based on these calculations. To confirm that the irradiances measured on the microscope were accurate, experiments were also reproduced, when possible, using light illumination with a collimated light source from Oriel (Stratford, CT) equipped with a 500 W Hg lamp. Selective irradiation at 560 nm was performed using an analytical line filter (Oriel, 9.4 nm bandwidth). In this case, irradiances of the light beam (diameter of 2.5 cm) could be measured more precisely using the monochromic photometer.

As for `CN(C)c1ccc2c(c1)Oc1cc(N(C)C)ccc1C21OC(=O)c2cc(C(=O)NCC(=O)N[C@@H](CCCNC(=N)N)C(=O)N[C@@H](CCCCN)C(=O)N[C@@H](CCCCN)C(=O)N[C@@H](CCCNC(=N)N)C(=O)N[C@@H](CCCNC(=N)N)C(=O)N[C@@H](CCC(N)=O)C(=O)N[C@@H](CCCNC(=N)N)C(=O)N[C@@H](CCCNC(=N)N)C(=O)N[C@@H](CCCNC(=N)N)C(=O)NCC(N)=O)ccc21` [TMR-TAT], the “cytotoxicity in the absence of light” value with HeLa cells [1] was “negligible”. In addition, in the data set with red blood cells (RBCs) (3 µM, 560 nm), the “lysis of RBCs when light exposure is increased” value is “more than 90%”. Moreover, the “lysis of RBCs in the absence of irradiation” value in the data set with red blood cells (RBCs) (RBCs 0.25% in PBS, 1 to 5 µM, no 560 nm light) is given as “No lysis”. Also, in the data set with red blood cells (RBCs) (RBCs 0.25% in PBS, irradiation at 560 nm), the “photohemolysis (lytic effect on RBCs upon light exposure)” value is recorded as “started lysing immediately upon excitation with light”. Moreover, in the data set on red blood cells (RBCs) (incubation media degassed with nitrogen), the “photohemolysis after removal of oxygen” value is recorded as “greatly reduced”. In the data set with HeLa cells [2] (endocytosed peptide, 2 sec irradiation at 560 nm, radiant exposure approx. 40 J/cm^2, at least 3000 cells, reproduced at least 3 times), the “cell destruction, percentage of irradiated cells (SYTOX Blue staining)” value is on record as “more than 95%”. Also, in the data set with HeLa cells [2] (incubation 1 h 37°C (3 µM; TMR-K9 10 µM), washed, irradiated at 560±20 nm), the “photocytotoxicity / cell death after irradiation at 560 nm” value is “rapid necrosis; also recorded: plasma membrane damage and cell death”.
